{"source": "paper PMC10135569", "about": "“Does Enhanced Structural Maturity of hiPSC-Cardiomyocytes Better for the Detection of Drug-Induced Cardiotoxicity?” (Biomolecules, 2023)", "key": {"[1]": {"system": "hiPSC-CMs (iCell2 Cardiomyocytes) 2D monolayers", "assay": "Membrane potential (action potential) recordings with FluoVolt voltage-sensitive dye on the CellOPTIQ platform", "format": "cell-based, human", "conditions": "for activity at 0.01 µM / activity at 0.03 µM / activity at 0.1 µM / activity at 0.3 µM: Homo sapiens, Cardiomyocyte, 0.5 h, 30 min, delta over DMSO 0.1%", "description": "(§1) Cardiomyocytes (FUJIFILM Cellular Dynamics, Madison, WI, USA) were kept at −190 °C and prepared for culture as per the manufacturer’s instructions.\n(§2) Standard fibronectin vs. Matrix Plus well coating: The cells were cultured using two different coatings in a humidified incubator at 37 °C with 5% CO2. First, 96-well glass-bottomed plates (MatTek, Ashland, MA) were coated with fibronectin ([…] in PBS supplemented with Ca^2+ and Mg^2+; Sigma, St. Louis, MO, USA) (defining FM). Second, CELLvo^TM Matrix Plus (StemBioSys, San Antonio, TX, USA), which were pre-coated on 96 well glass bottom plates and kept at 4 °C. On the day of plating, CELLvo^TM Matrix Plus plates were transferred to room temperature, rehydrated with phosphate buffer saline (PBS), incubated for 1 h at 37 °C, and washed 2× with PBS. Cells were introduced at a density of 50,000 cells/well to allow the formation of a confluent monolayer in each well (defined as MM). The maintenance protocols followed the manufacturer’s instructions and used the iCell^2 Cardiomyocytes Maintenance media for media changes every 2 days. Experiments were performed between days 5 and 6, as recommended by the manufacturers. Before beginning an experiment, cells were washed in serum-free media (SF media) (Fluorobrite DMEM, Gibco, Thermo Fisher Scientific, Horsham, UK).\n(§3) The drug powders were dissolved in DMSO, and four stock concentrations at 1000× the final target concentration were prepared in DMSO. For the experiment, an intermediate concentration 2× the target solution was prepared in SF media. The addition of drugs to the cells was accomplished by replacing 50% of the well volume with the intermediate 2× solution. The same procedure was done for vehicle control using DMSO. The experimental number n = 8/concentration/testing compound in the FM or MM condition, and n = 36 for each positive or negative control in the FM or MM condition.\nCultures of hiPSC-CMs (5–6 days post-plating) were treated with FluoVolt dye (1:1000, Invitrogen, Cat# F10488) in SF media and incubated for 20 min at 37 °C with 5% CO2 and 80% humidity. Multi-well plates were placed in the environmentally controlled stage incubator (37 °C, 5% CO2, water-saturated air atmosphere) (Okolab Inc. Burlingame, CA) of the CellOPTIQ® platform (Clyde Biosciences Ltd., Glasgow, Scotland). The FluoVolt signal was recorded from a 0.2 mm × 0.2 mm area using a 40× (numerical aperture: NA 0.6) Excitation wavelength was 470 ± 10 nm using a light-emitting diode (LED), and emitted light was collected by two photomultipliers (PMTs) at 510–560 nm (channel 1) and 590–650 nm (channel 2), respectively. LED, PMT, and associated power supplies and amplifiers were supplied by Cairn Research Ltd. (Kent, UK) and digitized at 10 kHz and stored on a computer hard drive. In the case of FluoVolt-based action potential recordings, the short wavelength (channel 1, […]) was analyzed for action potential features.\n(§4) The dye FluoVolt is loaded into the surface membrane (outer leaflet), and the dye remains within the membrane for many dots, allowing intermittent voltage measurements over the experimental period. In this study, measurements were restricted to within 30 mins of application of the drug. The measurements were made on the same area before/after drug/DMSO addition. […] Baseline spontaneous electrical activity and the associated contractility signal were recorded by capturing 10 s segments of fluorescent signal and video for 2D plates and 15 s for organoids from each well prior to compound addition. Drugs were tested at four concentrations in n = 8 independent replicates (i.e., 8 wells from a single plating) at each concentration. A vehicle control was included for each drug. A 10 s or 15 s recording was then taken 30 min after exposure to the drug or vehicle with only one concentration applied/well."}, "[2]": {"system": "hiPSC-CMs (iCell2 Cardiomyocytes) 2D monolayers", "assay": "Contractility measurements using video imaging (ContractilityTool / MUSCLEMOTION)", "format": "cell-based, human", "conditions": "Homo sapiens, Cardiomyocyte, 0.5 h, 30 min, delta over DMSO 0.1%", "description": "as §1, §2, §3\nas §4, with “applied/well. Offline analysis was performed using proprietary software (CellOPTIQ®).” for “applied/well.”\nShort periods (10 s or 15 s) of video were analyzed using the ContractilityTool application (developed by F.L. Burton), which is an implementation of the MUSCLEMOTION algorithm."}, "[3]": {"conditions": "FM monolayer, read-out: APD30 (%DD)"}, "[4]": {"conditions": "FM monolayer, read-out: APD90 (%DD)"}, "[5]": {"conditions": "FM monolayer, read-out: CL (%DD)"}, "[6]": {"conditions": "FM monolayer, read-out: Trise (%DD)"}, "[7]": {"conditions": "MM monolayer, read-out: APD30 (%DD)"}, "[8]": {"conditions": "MM monolayer, read-out: APD90 (%DD)"}, "[9]": {"conditions": "MM monolayer, read-out: CL (%DD)"}, "[10]": {"conditions": "MM monolayer, read-out: Trise (%DD)"}, "[11]": {"conditions": "both FM and MM monolayers, concentration not given"}, "[12]": {"conditions": "FM monolayer, read-out: CtAmp (%DD)"}, "[13]": {"conditions": "FM monolayer, read-out: CtD50 (%DD)"}, "[14]": {"conditions": "MM monolayer, read-out: CtAmp (%DD)"}, "[15]": {"conditions": "MM monolayer, read-out: CtD50 (%DD)"}}, "data": [{"smiles": "COc1ccc([C@@H]2Sc3ccccc3N(CCN(C)C)C(=O)[C@@H]2OC(C)=O)cc1", "note": "[Diltiazem]", "values": [{"measurement": "activity at 0.01 µM", "setting": "[1]; [3]", "result": "98 ± 1.9", "unit": "%"}, {"measurement": "activity at 0.01 µM", "setting": "[1]; [4]", "result": "96 ± 1.1", "unit": "%"}, {"measurement": "activity at 0.01 µM", "setting": "[1]; [5]", "result": "102 ± 1.1", "unit": "%"}, {"measurement": "activity at 0.01 µM", "setting": "[1]; [6]", "result": "105 ± 17", "unit": "%"}, {"measurement": "activity at 0.03 µM", "setting": "[1]; [3]", "result": "92 ± 1.5", "unit": "%"}, {"measurement": "activity at 0.03 µM", "setting": "[1]; [4]", "result": "92 ± 0.9", "unit": "%"}, {"measurement": "activity at 0.03 µM", "setting": "[1]; [5]", "result": "103 ± 1.3", "unit": "%"}, {"measurement": "activity at 0.03 µM", "setting": "[1]; [6]", "result": "103 ± 12.5", "unit": "%"}, {"measurement": "activity at 0.1 µM", "setting": "[1]; [3]", "result": "76 ± 2.7", "unit": "%"}, {"measurement": "activity at 0.1 µM", "setting": "[1]; [4]", "result": "78 ± 2.2", "unit": "%"}, {"measurement": "activity at 0.1 µM", "setting": "[1]; [5]", "result": "96 ± 0.8", "unit": "%"}, {"measurement": "activity at 0.1 µM", "setting": "[1]; [6]", "result": "91 ± 12", "unit": "%"}, {"measurement": "activity at 0.3 µM", "setting": "[1]; [3]", "result": "60 ± 1.3", "unit": "%"}, {"measurement": "activity at 0.3 µM", "setting": "[1]; [4]", "result": "62 ± 1.1", "unit": "%"}, {"measurement": "activity at 0.3 µM", "setting": "[1]; [5]", "result": "85 ± 0.5", "unit": "%"}, {"measurement": "activity at 0.3 µM", "setting": "[1]; [6]", "result": "116 ± 13.8", "unit": "%"}, {"measurement": "activity at 0.01 µM", "setting": "[1]; [7]", "result": "100 ± 1.9", "unit": "%"}, {"measurement": "activity at 0.01 µM", "setting": "[1]; [8]", "result": "96 ± 0.6", "unit": "%"}, {"measurement": "activity at 0.01 µM", "setting": "[1]; [9]", "result": "98 ± 0.9", "unit": "%"}, {"measurement": "activity at 0.01 µM", "setting": "[1]; [10]", "result": "86 ± 16.4", "unit": "%"}, {"measurement": "activity at 0.03 µM", "setting": "[1]; [7]", "result": "91 ± 1.2", "unit": "%"}, {"measurement": "activity at 0.03 µM", "setting": "[1]; [8]", "result": "90 ± 0.7", "unit": "%"}, {"measurement": "activity at 0.03 µM", "setting": "[1]; [9]", "result": "96 ± 0.9", "unit": "%"}, {"measurement": "activity at 0.03 µM", "setting": "[1]; [10]", "result": "79 ± 4", "unit": "%"}, {"measurement": "activity at 0.1 µM", "setting": "[1]; [7]", "result": "80 ± 1.6", "unit": "%"}, {"measurement": "activity at 0.1 µM", "setting": "[1]; [8]", "result": "77 ± 1.2", "unit": "%"}, {"measurement": "activity at 0.1 µM", "setting": "[1]; [9]", "result": "83 ± 0.6", "unit": "%"}, {"measurement": "activity at 0.1 µM", "setting": "[1]; [10]", "result": "79 ± 14.3", "unit": "%"}, {"measurement": "activity at 0.3 µM", "setting": "[1]; [7]", "result": "65 ± 0.8", "unit": "%"}, {"measurement": "activity at 0.3 µM", "setting": "[1]; [8]", "result": "62 ± 0.9", "unit": "%"}, {"measurement": "activity at 0.3 µM", "setting": "[1]; [9]", "result": "71 ± 0.5", "unit": "%"}, {"measurement": "activity at 0.3 µM", "setting": "[1]; [10]", "result": "74 ± 8.9", "unit": "%"}, {"measurement": "effect on APD30 (in words)", "setting": "[1]; [11]", "result": "shortening"}, {"measurement": "effect on APD90 (in words)", "setting": "[1]; [11]", "result": "shortening"}, {"measurement": "effect on beating rate / spontaneous rate (in words)", "setting": "[1]; both FM and MM, concentration not given", "result": "increase"}, {"measurement": "activity at 0.01 µM", "setting": "[2]; [12]", "result": "142 ± 27.5", "unit": "%"}, {"measurement": "activity at 0.01 µM", "setting": "[2]; [13]", "result": "103 ± 2.8", "unit": "%"}, {"measurement": "activity at 0.03 µM", "setting": "[2]; [12]", "result": "127 ± 27.9", "unit": "%"}, {"measurement": "activity at 0.03 µM", "setting": "[2]; [13]", "result": "95 ± 1.4", "unit": "%"}, {"measurement": "activity at 0.1 µM", "setting": "[2]; [12]", "result": "108 ± 33.5", "unit": "%"}, {"measurement": "activity at 0.1 µM", "setting": "[2]; [13]", "result": "82 ± 1.6", "unit": "%"}, {"measurement": "activity at 0.3 µM", "setting": "[2]; [12]", "result": "59 ± 15.4", "unit": "%"}, {"measurement": "activity at 0.3 µM", "setting": "[2]; [13]", "result": "68 ± 1.4", "unit": "%"}, {"measurement": "activity at 0.01 µM", "setting": "[2]; [14]", "result": "101 ± 11.1", "unit": "%"}, {"measurement": "activity at 0.01 µM", "setting": "[2]; [15]", "result": "105 ± 2.7", "unit": "%"}, {"measurement": "activity at 0.03 µM", "setting": "[2]; [14]", "result": "94 ± 7.8", "unit": "%"}, {"measurement": "activity at 0.03 µM", "setting": "[2]; [15]", "result": "99 ± 2.6", "unit": "%"}, {"measurement": "activity at 0.1 µM", "setting": "[2]; [14]", "result": "93 ± 6.2", "unit": "%"}, {"measurement": "activity at 0.1 µM", "setting": "[2]; [15]", "result": "81 ± 1.2", "unit": "%"}, {"measurement": "activity at 0.3 µM", "setting": "[2]; [14]", "result": "73 ± 5.8", "unit": "%"}, {"measurement": "activity at 0.3 µM", "setting": "[2]; [15]", "result": "61 ± 1.9", "unit": "%"}]}]}
